Legend:
[1] = Drug level in human hepatocytes treated with 4-(3-chloro-4-(hydroxymethyl)phenoxy)-3-cyano-N-(5-fluoropyridin-2-yl)benzenesulfonamide; type: ADME, cell-based, Hepatocyte
[2] = Drug level in human liver microsomes treated with 4-(3-chloro-4-(hydroxymethyl)phenoxy)-3-cyano-N-(5-fluoropyridin-2-yl)benzenesulfonamide; type: ADME
[3] = Volume of distribution at steady state in rat at 1 mg/kg, iv and 3 mg/kg, po; type: ADME, organism-based; conditions: in vivo, read-out: Vdss
[4] = Unbound average plasma concentration in human at >450 mg, bid; type: ADME
[5] = Unbound clearance in rat at 1 mg/kg, iv and 3 mg/kg, po; type: ADME, organism-based; conditions: in vivo
[6] = Lipophilicity, log D of the compound; type: physicochemical; conditions: octanol/water
[7] = Half life in dog at 0.1 mg/kg, iv and 3 mg/kg, po; type: ADME, organism-based, Canis lupus familiaris; conditions: in vivo
[8] = Unbound clearance in dog at 0.1 mg/kg, iv and 3 mg/kg, po; type: ADME, organism-based, Canis lupus familiaris; conditions: in vivo
[9] = Volume of distribution at steady state in dog at 0.1 mg/kg, iv and 3 mg/kg, po; type: ADME, organism-based, Canis lupus familiaris; conditions: in vivo, read-out: Vdss
[10] = Oral bioavailability in rat at 3 mg/kg; type: ADME, organism-based; conditions: in vivo
[11] = Plasma clearance in dog at 0.1 mg/kg, iv and 3 mg/kg, po; type: ADME, organism-based, Canis lupus familiaris
[12] = Oral bioavailability in dog at 3 mg/kg; type: ADME, organism-based, Canis lupus familiaris; conditions: in vivo
[13] = species: Homo sapiens; experiment: Reduction in serum ureate in human at >450 mg, bid; type: functional; set-up: scale not given: the % may be the effect or the level left

In the case of `N#Cc1cc(S(=O)(=O)Nc2ccc(F)cn2)ccc1Oc1ccc(C(=O)O)c(Cl)c1`, the Drug metabolism [1] is reported as “Metabolite_Detected” and the Drug metabolism [2] is reported as “Metabolite_Detected”.

For `Nc1[nH]ncc1-c1cc(Cl)ccc1Oc1cc(F)c(S(=O)(=O)Nc2cscn2)cc1Cl` [PF-05089771], the Vd [3] was 1.3 L/kg, the “Cp(f)” value [4] was 60 nM and the CL free [5] was 447 mL/min/kg. For the same compound, the logD [6] was 2.6, the half-life [7] was 1.4 h and the CL free [8] was 641 mL/min/kg. The Vd [9] was 0.31 L/kg, the bioavailability [10] was 27% and the clearance [11] was 4.8 mL/min/kg. For the same compound, the bioavailability [12] was 35% and the Activity [13] was 50%.
